IC50 data for 34 compounds are collected here from US8822463B2, “Methylcyclohexane derivatives and uses thereof” (Sk Biopharmaceuticals Co., Ltd., priority 2010, dated 2014).

Structures can show the parent of a compound that is named as a salt.

The test system of experiment [1] is LPS-induced NO production in mouse monocytes (RAW). Nature of the experiment: LPS-induced NO production inhibition test, mouse monocytes (RAW). Format: cell-based. The note with it: Monocyte, RAW cells, 20 ng/ml LPS, 24 hours, Griess reagent. As for the experimental part:
(§1) Mouse monocytes (RAW) and mouse microglia (BV2) cells were cultured on a 96-well transparent plate (Nunc) in such a way that each of the wells contained 60,000 and 35,000 cells respectively. After 18 hours, when stabilized, the cells were treated with lipopolysaccharide (Sigma, USA, Cat No. L2630) in a morbid state derived from 20 ng/ml of Escherichia coli O111:B4 and 4 different concentrations (50 uM, 12.5 uM, 3.1 uM, and 0.8 uM) of the compounds synthesized according to Examples 1 to 55. Then, the cells were cultured for 24 hours, and a concentration of increased NO was measured. The NO concentration was determined by measuring absorption at a wavelength of 540 nm after a Griess reagent including 0.1% N-(1-naphthyl)ethylenediamine dihydrochloride, 1% sulfanilamide, and 2.5% phosphoric acid were added thereto.
On the technique in general: The Griess reaction detects nitrite, a stable product of nitric oxide.

Experiment [2] deals with LPS-induced NO production in mouse microglia (BV2). Briefly: LPS-induced NO production inhibition test, mouse microglia (BV2). Format: cell-based. The note with it: BV-2, BV2 cells, 20 ng/ml LPS, 24 hours, Griess reagent. As for the experimental part: as §1

What is called IC50 is the midpoint of a concentration-inhibition curve. Lower therefore signals greater potency in that assay. Turning to `O=C(NCCc1ccccc1)OC1CCC(COC(=O)N2CCCC2)CC1` (centres unmarked) [Example 1, pyrrolidine-1-carboxylic acid 4-phenethylcarbamoyloxy-cyclohexylmethyl ester], the figures for the half-maximal inhibitory concentration (IC50) in experiment [1] and in experiment [2] were 27.9 µM and 19.9 µM, respectively.

Take `O=C(NCCc1ccccn1)OC1CCC(COC(=O)N2CCCC2)CC1` (centres unmarked) [Example 2, pyrrolidine-1-carboxylic acid 4-(2-pyridin-2-yl-ethylcarbamoyloxy)-cyclohexylmethyl ester]: the IC50 in experiment [1] was greater than 50 µM; in experiment [2] it was 40.1 µM.

As to `O=C(NCCc1cccnc1)OC1CCC(COC(=O)N2CCCC2)CC1` (centres unmarked) [Example 3, pyrrolidine-1-carboxylic acid 4-(2-pyridin-3-yl-ethylcarbamoyloxy)-cyclohexylmethyl ester], the values for the IC50 in experiment [1] and in experiment [2] were 22.3 µM and 30.3 µM, respectively.

In the case of `O=C(NCCc1ccncc1)OC1CCC(COC(=O)N2CCCC2)CC1` (centres unmarked) [Example 4, pyrrolidine-1-carboxylic acid 4-(2-pyridin-4-yl-ethylcarbamoyloxy)-cyclohexylmethyl ester], the IC50 stood at 30.3 µM in experiment [1] and 32.9 µM in experiment [2].

Regarding `O=C(NCCc1cccc[n+]1[O-])OC1CCC(COC(=O)N2CCCC2)CC1` (centres unmarked) [Example 5, pyrrolidine-1-carboxylic acid 4-[2-(1-oxy-pyridin-2-yl)-ethylcarbamoyloxy]-cyclohexylmethyl ester], the IC50 in experiment [1] was greater than 50 µM; in experiment [2], 48.7 µM.

Take `O=C(NCCc1ccc[n+]([O-])c1)OC1CCC(COC(=O)N2CCCC2)CC1` (centres unmarked) [Example 6, pyrrolidine-1-carboxylic acid 4-[2-(1-oxy-pyridin-3-yl)-ethylcarbamoyloxy]-cyclohexylmethyl ester]: the results for the IC50 in experiment [1] and in experiment [2] were 41.2 µM and greater than 50 µM, respectively.

`O=C(NCc1ccccn1)OC1CCC(COC(=O)N2CCCC2)CC1` (centres unmarked) [Example 7, pyrrolidine-1-carboxylic acid 4-(pyridin-2-ylmethylcarbamoyloxy)-cyclohexylmethyl ester]: the IC50 in experiment [1] and in experiment [2] was greater than 50 µM in each case.

Regarding `O=C(NCc1ccncc1)OC1CCC(COC(=O)N2CCCC2)CC1` (centres unmarked) [Example 9, pyrrolidine-1-carboxylic acid 4-(pyridin-4-ylmethylcarbamoyloxy)-cyclohexylmethyl ester], the IC50 in experiment [1] and in experiment [2] was greater than 50 µM in each case.

As to `CN(Cc1ccccn1)C(=O)OC1CCC(COC(=O)N2CCCC2)CC1` (centres unmarked) [Example 10, pyrrolidine-1-carboxylic acid 4-(methyl-pyridin-2-ylmethyl-carbamoyloxy)-cyclohexylmethyl ester], the half-maximal inhibitory concentration (IC50) in experiment [1] was determined as 46.1 µM; in experiment [2], 5.3 µM.

Take `O=C(NCc1cc[n+]([O-])cc1)OC1CCC(COC(=O)N2CCCC2)CC1` (centres unmarked) [Example 11, pyrrolidine-1-carboxylic acid 4-(1-oxy-pyridin-4-ylmethylcarbamoyloxy)-cyclohexylmethyl ester]: the IC50 in experiment [1] was 10.2 µM; in experiment [2], greater than 50 µM.

In the case of `O=C(NCc1ccc[n+]([O-])c1)OC1CCC(COC(=O)N2CCCC2)CC1` (centres unmarked) [Example 12, pyrrolidine-1-carboxylic acid 4-(1-oxy-pyridin-3-ylmethylcarbamoyloxy)-cyclohexylmethyl ester], the half-inhibitory concentration (IC50) in experiment [1] and in experiment [2] was greater than 50 µM each time.

As for `O=C(NCc1cccc[n+]1[O-])OC1CCC(COC(=O)N2CCCC2)CC1` (centres unmarked) [Example 13, pyrrolidine-1-carboxylic acid 4-(1-oxy-pyridin-2-ylmethylcarbamoyloxy)-cyclohexylmethyl ester], the concentration for half-maximal inhibition (IC50) in experiment [1] was 27.9 µM; in experiment [2], greater than 50 µM.

Regarding `O=C(NCc1cccc(Cl)n1)OC1CCC(COC(=O)N2CCCC2)CC1` (centres unmarked) [Example 14, pyrrolidine-1-carboxylic acid 4-(6-chloro-pyridin-2-ylmethylcarbamoyloxy)-cyclohexylmethyl ester], the figures for the IC50 in experiment [1] and in experiment [2] were 21.7 µM and 22.3 µM, respectively.

In the case of `O=C(NCc1ccc(C(F)(F)F)nc1)OC1CCC(COC(=O)N2CCCC2)CC1` (centres unmarked) [Example 19, pyrrolidine-1-carboxylic acid 4-(6-trifluoromethyl-pyridin-3-ylmethylcarbamoyloxy)-cyclohexylmethyl ester], the values for the IC50 in experiment [1] and in experiment [2] were 11.1 µM and 13.8 µM, respectively.

Consider `Cc1cccc(NC(=O)OC2CCC(COC(=O)N3CCCC3)CC2)n1` (centres unmarked) [Example 22, pyrrolidine-1-carboxylic acid 4-(6-methyl-pyridin-2-ylcarbamoyloxy)-cyclohexylmethyl ester], for which the IC50 in experiment [1] came to 35.8 µM; in experiment [2], 21.7 µM.

Regarding `O=C(Nc1cc(Cl)nc(Cl)c1)OC1CCC(COC(=O)N2CCCC2)CC1` (centres unmarked) [Example 24, pyrrolidine-1-carboxylic acid 4-(2,6-dichloro-pyridin-4-ylcarbamoyloxy)-cyclohexylmethyl ester], the IC50 in experiment [1] and in experiment [2] was greater than 50 µM each time.

As for `O=C(Nc1cccc[n+]1[O-])OC1CCC(COC(=O)N2CCCC2)CC1` (centres unmarked) [Example 25, pyrrolidine-1-carboxylic acid 4-(1-oxy-pyridin-2-ylcarbamoyloxy)-cyclohexylmethyl ester], the IC50 in experiment [1] was 24.9 µM; in experiment [2] it was 15.5 µM.

Regarding `O=C(NCc1ccccn1)OC1CCC(COC(=O)N2CCCCC2)CC1` (centres unmarked) [Example 26], the IC50 is 46.1 µM in experiment [1] and 36.8 µM in experiment [2].

Regarding `O=C(NCc1ccccn1)OC1CCC(COC(=O)N2CCOCC2)CC1` (centres unmarked) [Example 27], the IC50 was 50 µM in experiment [1] and greater than 50 µM in experiment [2].

Take `O=C(NCc1ccccn1)OC1CCC(COC(=O)N2CCNCC2)CC1` (centres unmarked) [Example 28, HCl salt]: the values for the IC50 in experiment [1] and in experiment [2] were greater than 50 µM and 44.8 µM, respectively.

Regarding `CN1CCN(C(=O)OCC2CCC(OC(=O)NCc3ccccc3)CC2)CC1` (centres unmarked) [Example 29, 4-methyl-piperazine-1-carboxylic acid 4-benzylcarbamoyloxy-cyclohexylmethyl ester], the IC50 was 46.1 µM in experiment [1] and greater than 50 µM in experiment [2].

For `O=C(OC1CCC(COC(=O)N2CCCC2)CC1)c1ccccn1` (centres unmarked) [Example 30, pyridine-2-carboxylic acid 4-(pyrrolidine-1-carbonyloxymethyl)-cyclohexyl ester], the IC50 in experiment [1] and in experiment [2] was greater than 50 µM throughout.

With `O=C(OC1CCC(COC(=O)N2CCCC2)CC1)c1cccnc1` (centres unmarked) [Example 31, pyridine-3-carboxylic acid 4-(pyrrolidine-1-carbonyloxymethyl)-cyclohexyl ester], the values for the IC50 in experiment [1] and in experiment [2] were greater than 50 µM and 21.1 µM, respectively.

On to `O=C(OC1CCC(COC(=O)N2CCCC2)CC1)c1ccncc1` (centres unmarked) [Example 32, pyridine-4-carboxylic acid 4-(pyrrolidine-1-carbonyloxymethyl)-cyclohexyl ester], for which the values for the IC50 in experiment [1] and in experiment [2] were 21.1 µM and 34.8 µM, respectively.

As to `O=C(Cc1ccccn1)OC1CCC(COC(=O)N2CCCC2)CC1` (centres unmarked) [Example 33, pyrrolidine-1-carboxylic acid 4-(2-pyridin-2-yl-acetoxy)-cyclohexylmethyl ester], the IC50 in experiment [1] and in experiment [2] was greater than 50 µM each time.

On to `O=C(OCC1CCC(OCc2ccccc2)CC1)N1CCCC1` (centres unmarked) [Example 34, pyrrolidine-1-carboxylic acid 4-benzyloxy-cyclohexylmethyl ester], for which the 50% inhibitory concentration (IC50) in experiment [1] amounted to 24.9 µM; in experiment [2], 27.1 µM.

On to `O=C(OCC1CCC(OCc2ccccn2)CC1)N1CCCC1` (centres unmarked) [Example 35, pyrrolidine-1-carboxylic acid 4-(pyridin-2-ylmethoxy)-cyclohexylmethyl ester], for which the IC50 in experiment [1] is greater than 50 µM; in experiment [2], 50 µM.

For `O=C(OCC1CCC(OCc2cccc[n+]2[O-])CC1)N1CCCC1` (centres unmarked) [Example 36, pyrrolidine-1-carboxylic acid 4-(1-oxy-pyridin-2-ylmethoxy)-cyclohexylmethyl ester], the IC50 in experiment [1] and in experiment [2] was greater than 50 µM throughout.

Turning to `O=C(OCC1CCC(NCc2ccccc2)CC1)N1CCCC1` (centres unmarked) [Example 37, pyrrolidine-1-carboxylic acid 4-benzylaminocyclohexylmethyl ester HCl salt], the results for the IC50 in experiment [1] and in experiment [2] were 46.1 µM and greater than 50 µM, respectively.

Take `COc1ccc(CNC2CCC(COC(=O)N3CCCC3)CC2)cc1` (centres unmarked) [Example 38, pyrrolidine-1-carboxylic acid 4-(4-methoxy-benzylamino)-cyclohexylmethyl ester HCl salt]: the IC50 in experiment [1] was 35.8 µM; in experiment [2], greater than 50 µM.

Regarding `COc1ccc(CCNC2CCC(COC(=O)N3CCCC3)CC2)cc1` (centres unmarked) [Example 39, pyrrolidine-1-carboxylic acid 4-[2-(4-methoxy-phenyl)-ethylamino]-cyclohexylmethyl ester HCl salt], the IC50 in experiment [1] and in experiment [2] was greater than 50 µM throughout.

Take `O=C(NC1CCC(COC(=O)N2CCCC2)CC1)OCc1cccnc1` (centres unmarked) [Example 41, pyrrolidine-1-carboxylic acid 4-(pyridin-3-ylmethoxycarbonylamino)-cyclohexylmethyl ester]: the half-inhibitory concentration (IC50) is 50 µM in experiment [1] and greater than 50 µM in experiment [2].

As to `O=C(NC1CCC(COC(=O)N2CCCC2)CC1)OCc1ccnc(Cl)c1` (centres unmarked) [Example 43, pyrrolidine-1-carboxylic acid 4-(2-chloro-pyridin-4-ylmethoxycarbonylamino)-cyclohexylmethyl ester], the values for the IC50 in experiment [1] and in experiment [2] were 10.5 µM and 12 µM, respectively.

For `O=C(NC1CCC(COC(=O)N2CCCC2)CC1)OCc1cccnc1Cl` (centres unmarked) [Example 44, pyrrolidine-1-carboxylic acid 4-(2-chloro-pyridin-3-ylmethoxycarbonylamino)-cyclohexylmethyl ester], the IC50 in experiment [1] was 21.7 µM; in experiment [2] it was 16.8 µM.
